Experimental data: US4835156A, “Vasodilatory dihydrodibenzocycloheptyliden-ethyl piperazine derivatives and process for the preparation of these compounds” (Sociedad Espanola De Especialidades Terepeuticas, S.A., priority 1983, dated 1989)

What was measured:
[1] = test system: Rabbit cerebral territory; test: Vasodilation in perfused rabbit cerebral territory (variation in perfusion pressure); assay type: in vivo; details: for Vasodilatory Index: % vasodilation multiplied by duration of action; for Vasodilatory Activity (Rabbit cerebral territory) Evaluation: crosses relative to standard cinnarizine;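 on Vasodilatory Activity (Rabbit cerebral territory) Evaluation: four crosses equal an effect comparable to the standard drug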
Experimental: (§1) The significance of the symbols is as follows:
In a further trial, the vasodilatory activity is evaluated by the technique of vasodilation in perfused rabbit cerebral territory as described by P. Vaupel and H. Hutten (Arzneim. Forsch./Drug Res. 30(I), 598-602 (1980)), calculating the variation in perfusion pressure after treatment (Table 3).
Table 3 employs the same conventional signs based on crosses, with the same relative significance as in Table 2.

[2] = Toxicity, indicative LD50, intraperitoneal; details: mouse, in vivo, ip, Swiss mice, 7 days post-administration
Experimental: Table 4 sets forth the results of the indicative LD50 for the most representative of the compounds according to the present invention.
The compounds are administered by the intraperitoneal route to Swiss mice, after which the toxic effects are observed, and the mortality rate and the LD50 7 days post-administration are calculated.

Rat hind-quarters = test: Vasodilatory activity, isolated rat hind-quarters (antagonism of vasoconstriction by hyperkalaemic Tyrode solution); details: crosses relative to standard drugs cinnarizine and flunarizine;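 further: four crosses equal an effect comparable to the standard drug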
Excerpt: as §1
In order to test the vasodilatory activity, the first trial employs the technique of the isolated rat hind-quarters (Table 2), which involves antagonizing the vasoconstrictive effect of perfusion of hyperkalaemic Tyrode solution, according to the method of F. N. Fastier and F. H. Smirk (J. Pharm. Exp. Therap. 89, […] (1947)), and then calculating for the products which show the greatest activity, the ED30, that is the dose which produces a 30% vasodilatory activity with respect to the basic vasoconstriction.

Structure (SMILES): CCOC(=O)CN1CCN(CC=C2c3ccccc3CCc3ccccc32)CC1 [WAS-4231]
- Vasodilatory Index [1]: 0 mm^2
- Vasodilatory Activity (Rabbit cerebral territory) Evaluation [1]: 0
- LD50 at 168 h [2]: 175 mg/kg
- Vasodilatory Activity (Rat hind-quarters) Evaluation (Rat hind-quarters): ++

Structure (SMILES): C(=Cc1ccccc1)CN1CCN(CC=C2c3ccccc3CCc3ccccc32)CC1 [WAS-4207]
- Vasodilatory Index [1]: 16.2 mm^2
- Vasodilatory Activity (Rabbit cerebral territory) Evaluation [1]: 0
- LD50 at 168 h [2]: 925 mg/kg
- Vasodilatory Activity (Rat hind-quarters) Evaluation (Rat hind-quarters): ++++

Structure (SMILES): O=C(CN1CCN(CC=C2c3ccccc3CCc3ccccc32)CC1)c1ccccc1 [WAS-4602]
- Vasodilatory Index [1]: 378.3 mm^2
- Vasodilatory Activity (Rabbit cerebral territory) Evaluation [1]: +++
- LD50 at 168 h [2]: 200 mg/kg
- Vasodilatory Activity (Rat hind-quarters) Evaluation (Rat hind-quarters): 0

Structure (SMILES): O=C(CN1CCN(CC=C2c3ccccc3CCc3ccccc32)CC1)N1CCCC1 [WAS-4224]
- Vasodilatory Index [1]: 342.0 mm^2
- Vasodilatory Activity (Rabbit cerebral territory) Evaluation [1]: +++
- LD50 at 168 h [2]: 385 mg/kg
- Vasodilatory Activity (Rat hind-quarters) Evaluation (Rat hind-quarters): 0

Structure (SMILES): COC(=O)c1cc(CN2CCN(CC=C3c4ccccc4CCc4ccccc43)CC2)ccc1O [WAS-4604]
- Vasodilatory Index [1]: 20.0 mm^2
- Vasodilatory Activity (Rabbit cerebral territory) Evaluation [1]: 0
- LD50 at 168 h [2]: 900 mg/kg
- Vasodilatory Activity (Rat hind-quarters) Evaluation (Rat hind-quarters): +

Structure (SMILES): OCCN1CCN(CC=C2c3ccccc3CCc3ccccc32)CC1 [WAS-4229]
- Vasodilatory Index [1]: 55.6 mm^2
- Vasodilatory Activity (Rabbit cerebral territory) Evaluation [1]: 0
- LD50 at 168 h [2]: 115 mg/kg
- Vasodilatory Activity (Rat hind-quarters) Evaluation (Rat hind-quarters): 0

Structure (SMILES): O=C(CN1CCN(CC=C2c3ccccc3CCc3ccccc32)CC1)N1CCOCC1 [WAS-4222]
- Vasodilatory Index [1]: 454.6 mm^2
- Vasodilatory Activity (Rabbit cerebral territory) Evaluation [1]: ++++
- LD50 at 168 h [2]: 185 mg/kg
- Vasodilatory Activity (Rat hind-quarters) Evaluation (Rat hind-quarters): +

Structure (SMILES): C=CCN1CCN(CC=C2c3ccccc3CCc3ccccc32)CC1 [WAS-4225]
- Vasodilatory Index [1]: 0 mm^2
- Vasodilatory Activity (Rabbit cerebral territory) Evaluation [1]: 0
- LD50 at 168 h [2]: 175 mg/kg
- Vasodilatory Activity (Rat hind-quarters) Evaluation (Rat hind-quarters): ++++

Structure (SMILES): C(CN1CCN(Cc2ccco2)CC1)=C1c2ccccc2CCc2ccccc21 [WAS-4221]
- Vasodilatory Index [1]: 321.4 mm^2
- Vasodilatory Activity (Rabbit cerebral territory) Evaluation [1]: +++
- LD50 at 168 h [2]: 185 mg/kg
- Vasodilatory Activity (Rat hind-quarters) Evaluation (Rat hind-quarters): 0

Structure (SMILES): O=C(C=CCN1CCN(CC=C2c3ccccc3CCc3ccccc32)CC1)c1ccccc1 [WAS-4605]
- Vasodilatory Index [1]: 420.9 mm^2
- Vasodilatory Activity (Rabbit cerebral territory) Evaluation [1]: ++++
- LD50 at 168 h [2]: 115 mg/kg
- Vasodilatory Activity (Rat hind-quarters) Evaluation (Rat hind-quarters): ++++

Structure (SMILES): C(CN1CCN(Cc2ccc3c(c2)OCO3)CC1)=C1c2ccccc2CCc2ccccc21 [WAS-4234]
- Vasodilatory Index [1]: 0 mm^2
- Vasodilatory Activity (Rabbit cerebral territory) Evaluation [1]: 0
- LD50 at 168 h [2]: 600 mg/kg
- Vasodilatory Activity (Rat hind-quarters) Evaluation (Rat hind-quarters): 0

Structure (SMILES): C(CN1CCN(Cc2cccs2)CC1)=C1c2ccccc2CCc2ccccc21 [WAS-4226, N-2-(10,11-dihydrodibenzo-(a,d)-cyclohept-5-yliden)-ethyl-N'-(2-thenyl)-piperazine]
- Vasodilatory Index [1]: 74.0 mm^2
- Vasodilatory Activity (Rabbit cerebral territory) Evaluation [1]: 0
- LD50 at 168 h [2]: 385 mg/kg
- Vasodilatory Activity (Rat hind-quarters) Evaluation (Rat hind-quarters): 0

Structure (SMILES): C(CN1CCN(Cc2ccccn2)CC1)=C1c2ccccc2CCc2ccccc21 [WAS-4232]
- Vasodilatory Index [1]: 46.8 mm^2
- Vasodilatory Activity (Rabbit cerebral territory) Evaluation [1]: 0
- LD50 at 168 h [2]: 115 mg/kg
- Vasodilatory Activity (Rat hind-quarters) Evaluation (Rat hind-quarters): ++

Structure (SMILES): O=C(CN1CCN(CC=C2c3ccccc3CCc3ccccc32)CC1)NC12CC3CC(CC(C3)C1)C2 [WAS-4239]
- Vasodilatory Index [1]: 0 mm^2
- Vasodilatory Activity (Rabbit cerebral territory) Evaluation [1]: 0
- LD50 at 168 h [2]: 340 mg/kg
- Vasodilatory Activity (Rat hind-quarters) Evaluation (Rat hind-quarters): ++

Structure (SMILES): COC(=O)C=CCN1CCN(CC=C2c3ccccc3CCc3ccccc32)CC1 [WAS-4237]
- Vasodilatory Index [1]: 19.6 mm^2
- Vasodilatory Activity (Rabbit cerebral territory) Evaluation [1]: 0
- LD50 at 168 h [2]: 3000 mg/kg
- Vasodilatory Activity (Rat hind-quarters) Evaluation (Rat hind-quarters): ++++

Structure (SMILES): O=C(CN1CCN(CC=C2c3ccccc3CCc3ccccc32)CC1)NC(=O)NCN1CCOCC1 [WAS-4601]
- Vasodilatory Index [1]: 180.8 mm^2
- Vasodilatory Activity (Rabbit cerebral territory) Evaluation [1]: +
- LD50 at 168 h [2]: 125 mg/kg
- Vasodilatory Activity (Rat hind-quarters) Evaluation (Rat hind-quarters): ++++

Structure (SMILES): C(CN1CCN(Cc2ccccc2)CC1)=C1c2ccccc2CCc2ccccc21 [WAS-4206, N-benzyl-N'-2-(10,11-dihydrodibenzo-(a,d)-cyclohept-5-yliden)-ethyl piperazine]
- Vasodilatory Index [1]: 285.3 mm^2
- Vasodilatory Activity (Rabbit cerebral territory) Evaluation [1]: ++
- LD50 at 168 h [2]: 880 mg/kg
- Vasodilatory Activity (Rat hind-quarters) Evaluation (Rat hind-quarters): ++++

Structure (SMILES): O=C(CN1CCN(CC=C2c3ccccc3CCc3ccccc32)CC1)N1CCCCC1 [WAS-4223]
- Vasodilatory Index [1]: 1133.6 mm^2
- Vasodilatory Activity (Rabbit cerebral territory) Evaluation [1]: ++++
- LD50 at 168 h [2]: 185 mg/kg
- Vasodilatory Activity (Rat hind-quarters) Evaluation (Rat hind-quarters): 0

Structure (SMILES): C(CN1CCN(Cc2cccnc2)CC1)=C1c2ccccc2CCc2ccccc21 [WAS-4227]
- Vasodilatory Index [1]: 253.7 mm^2
- Vasodilatory Activity (Rabbit cerebral territory) Evaluation [1]: ++
- LD50 at 168 h [2]: 175 mg/kg
- Vasodilatory Activity (Rat hind-quarters) Evaluation (Rat hind-quarters): +

Structure (SMILES): O=C(O)CN1CCN(CC=C2c3ccccc3CCc3ccccc32)CC1 [WAS-4233]
- Vasodilatory Index [1]: 0 mm^2
- Vasodilatory Activity (Rabbit cerebral territory) Evaluation [1]: 0
- LD50 at 168 h [2]: 900 mg/kg
- Vasodilatory Activity (Rat hind-quarters) Evaluation (Rat hind-quarters): 0

Structure (SMILES): Fc1ccc(C(c2ccc(F)cc2)N2CCN(C/C=C/c3ccccc3)CC2)cc1 [Flunarizine, reference compound]
- Vasodilatory Activity (Rat hind-quarters) Evaluation (Rat hind-quarters): ++++

Structure (SMILES): C(CN1CCN(Cc2ccncc2)CC1)=C1c2ccccc2CCc2ccccc21 [WAS-4220]
- Vasodilatory Index [1]: 1159.2 mm^2
- Vasodilatory Activity (Rabbit cerebral territory) Evaluation [1]: ++++
- LD50 at 168 h [2]: 185 mg/kg
- Vasodilatory Activity (Rat hind-quarters) Evaluation (Rat hind-quarters): 0
